By pIC50 is commonly meant the IC50 on a negative log10 scale, so that one unit is a factor of ten.

IC50 and GI50 data for five molecules are collected here from patent US8513270B2, “Substituted heterocycles as Janus kinase inhibitors” (Incyte Corporation, priority 2006, dated 2013).

Structures are written as SMILES. pIC50: −log10 of the molar value. Where two headings read alike, the source gives them in different places.

One assay concerns the target T1, ABL1 kinase (wild-type) (Homo sapiens, UniProt P00519).
T1 construct: The catalytic domains of ABL1 kinases (residues 27 to the C-termini) were N-terminal His tagged; His tag (N); purchased Upstate Cell Signaling Solutions; host or cells: insect cells (baculovirus)
Nature of the assay: ABL1 HTRF assay (wild-type). The assay is classed as biochemical. The note with it: 35 μM ATP; read-out: EXAMPLE G WT Abl IC50. As to the method:
(§1) Compounds herein described were tested for inhibitory activity of ABL1 kinase (wild-type and T315I mutant) as described below. The catalytic domains of ABL1 kinases (residues 27 to the C-termini) were N-terminal His tagged and expressed by baculovirus in insect cells and purified. These were purchased in purified form from Upstate Cell Signaling Solutions. ABL1 and T315I ABL1 catalyze the phosphorylation of p28. The phosphorylated p28 is detected by Homogeneous Time Resolved Fluorescence (HTRF). IC50s of compounds were measured for each kinase in the reactions that contain: 1-2 nM ABL1 or T315I ABL1, 500 nM peptide, 35 μM ATP for ABL1 and 10 μM ATP for T315I ABL1, 2.0% DMSO in assay buffer containing 50 mM Tris, pH 7.8, 100 mM NaCl, 10 mM MgCl2, 5 mM DTT, 0.6 mg/mL BSA. Reactions proceed at room temperature for one and half hour and were stopped by adding, 20 μL additional 50 mM NaCl, 0.4 mg/mL BSA, 45 mM EDTA, 200 nM SA-APC, 4 nM Eu—Py20 in assay buffer. The plates were incubated at room temperature for 40 min and HTRF was then measured on a plate reader.

In another assay the target is TF1-BCRABL1 cells (Homo sapiens, UniProt P00519). In words: ABL1 cell based assay: viability of ABL1-dependent cell line (CellTiter-Glo). Put shortly: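 ABL1-dependent cells plated at 3000 per well in RPMI 1640 with 10% FBS and exposed to compounds for 72 h at 37° C, 5% CO2, 0.2% DMSO final. Viability read by CellTiter-Glo luminescence; duplicate or more.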
In a further assay the target is T2, T315I ABL1 (Homo sapiens, UniProt P00519, T315I).
T2 construct: The catalytic domains of ABL1 kinases (residues 27 to the C-termini) were N-terminal His tagged; His tag (N); purchased Upstate Cell Signaling Solutions; host or cells: insect cells (baculovirus)
Nature of the assay: T315I ABL1 HTRF assay. The assay is classed as biochemical. The note with it: 10 μM ATP; read-out: EXAMPLE G T315I Abl IC50. The procedure: as §1
(In general: In TR-FRET formats the signal depends on donor and acceptor labels being close together.)

The subject of assay [1] is JAK2_INA61 (cancer cell line dependent on cytokines and JAK/STAT signal transduction). Nature of the assay: Cellular assay: viability of cytokine-dependent cancer cell line (CellTiter-Glo). The class given is cell-based. The note with it: 72 hours, read-out: EXAMPLE B JAK2_INA61 IC50. A digest of the protocol:
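Compounds in 0.2% DMSO (final) were incubated with the cells for 72 hours at 37° C., 5% CO2, and viability was read by CellTiter-Glo luminescence. A non-JAK driven cell line run in parallel with the same readout served for off-target effects. Duplicate experiments.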

Assay [2] deals with T3, human JAK3 (a.a. 781-1124) (Homo sapiens, UniProt P52333).
T3 construct: JAK3 (a.a. 781-1124); His tag (N); made in house; host or cells: insect cells (baculovirus)
T3 sequence (P52333 781-1124): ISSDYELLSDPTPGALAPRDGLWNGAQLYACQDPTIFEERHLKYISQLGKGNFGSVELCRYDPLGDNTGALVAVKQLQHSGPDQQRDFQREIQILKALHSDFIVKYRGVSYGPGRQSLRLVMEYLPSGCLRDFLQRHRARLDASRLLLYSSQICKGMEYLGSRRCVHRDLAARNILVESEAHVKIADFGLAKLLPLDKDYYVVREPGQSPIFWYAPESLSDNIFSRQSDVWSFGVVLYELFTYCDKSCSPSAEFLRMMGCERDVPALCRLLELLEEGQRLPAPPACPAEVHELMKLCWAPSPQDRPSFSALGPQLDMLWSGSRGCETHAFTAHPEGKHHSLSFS
In words: In vitro JAK kinase assay (HTRF), JAK3. The assay is classed as biochemical. The note with it: JAK3, 3 μM ATP; read-out: EXAMPLE A JAK2-JAK3 HTRF-2 IC50. Put shortly: (§2)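 His-tagged catalytic domains from baculovirus-infected insect cells phosphorylated 500 nM biotinylated peptide in 50 mM Tris pH 7.8, 100 mM NaCl, 5 mM DTT, 0.01% BSA for 1 h at room temperature. ATP was 90 μM (JAK1), 30 μM (JAK2), 3 μM (JAK3). Detection used Eu-Py20/SA-APC; IC50s were derived.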

Assay [3] has as its target T4, human JAK2 (a.a. 828-1132) (Homo sapiens, UniProt O60674).
T4 construct: JAK2 (a.a. 828-1132); His tag (N); made in house; host or cells: insect cells (baculovirus)
Nature of the assay: In vitro JAK kinase assay (HTRF), JAK2. The class given is biochemical. The note with it: JAK2, 30 μM ATP; read-out: EXAMPLE A HTS-JAK2 HTRF-2 IC50. Put shortly: as §2

The target of assay [4] is T5, human JAK1 (a.a. 837-1142) (Homo sapiens, UniProt P23458).
T5 construct: human JAK1 (a.a. 837-1142); His tag (N); made in house; host or cells: insect cells (baculovirus)
T5 sequence (P23458 849-1154): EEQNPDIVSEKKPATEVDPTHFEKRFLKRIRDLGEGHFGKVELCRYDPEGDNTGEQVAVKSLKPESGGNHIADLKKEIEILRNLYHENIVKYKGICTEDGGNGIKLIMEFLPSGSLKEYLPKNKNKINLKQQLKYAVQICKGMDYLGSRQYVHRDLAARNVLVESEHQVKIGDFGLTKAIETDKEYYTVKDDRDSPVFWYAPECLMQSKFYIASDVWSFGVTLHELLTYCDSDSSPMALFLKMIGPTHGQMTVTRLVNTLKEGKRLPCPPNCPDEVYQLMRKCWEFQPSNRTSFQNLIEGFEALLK
In words: In vitro JAK kinase assay (HTRF), JAK1. The assay is classed as biochemical. Conditions: JAK1, 90 μM ATP; read-out: EXAMPLE A JAK2-JAK1 HTRF-2 IC50. A digest of the protocol: as §2

The mark [5] stands for this setting: 72 hours, cell viability, read-out: EXAMPLE F JAK2-TF1-BCRABL1 IC50.
Setting [6] is: TF1_BCRABL cells, read-out: EXAMPLE H TF1_BCRABL IC50.

T4 sequence (O60674 828-1132): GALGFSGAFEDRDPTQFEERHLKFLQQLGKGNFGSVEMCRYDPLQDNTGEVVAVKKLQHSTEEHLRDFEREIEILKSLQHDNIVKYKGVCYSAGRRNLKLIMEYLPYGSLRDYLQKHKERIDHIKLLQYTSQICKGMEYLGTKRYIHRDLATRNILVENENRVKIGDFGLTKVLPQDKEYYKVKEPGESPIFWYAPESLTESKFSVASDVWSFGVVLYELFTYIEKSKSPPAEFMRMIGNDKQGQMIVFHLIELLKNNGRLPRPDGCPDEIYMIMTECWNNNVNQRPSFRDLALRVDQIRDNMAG

Consider `O=C(Nc1cccc(C(F)(F)F)c1)c1ccc(Cl)c(-c2ccc3c(c2)[nH]c2ncncc23)c1` [Example 58, 4-chloro-3-(9H-pyrimido-[4,5-b]indol-7-yl)-N-[3-(trifluoromethyl)phenyl]-benzamide], for which the negative-log IC50 (pIC50) on ABL1 kinase (wild-type) is greater than 6.70; on T315I ABL1 it was greater than 6.72; in assay [1] it was 6.00 to 6.30; in assay [2], no less than 6.30; in assay [3], no less than 6.30; in assay [4] it was no less than 6.30. The GI50 was no more than 500 nM on TF1-BCRABL1 cells (setting [5]) and less than 180 nM on TF1-BCRABL1 cells (setting [6]).

On to `Cc1ccc(NC(=O)c2cc(N3CCN(C)CC3)cc(C(F)(F)F)c2)cc1-c1ccc2c(c1)[nH]c1ncncc12` [Example 26, 3-(4-Methylpiperazin-1-yl)-N-[4-methyl-3-(9H-pyrimido[4,5-b]indol-7-yl)phenyl]-5-(trifluoromethyl)benzamide bis(trifluoroacetate)], for which the pIC50 at ABL1 kinase (wild-type) was greater than 6.70; on T315I ABL1, greater than 6.72; in assay [2] it was no less than 6.30; in assay [3] it was no less than 6.30; in assay [4] it was no less than 6.30. The GI50 is no more than 500 nM on TF1-BCRABL1 cells (setting [5]) and less than 180 nM at TF1-BCRABL1 cells (setting [6]).

Turning to `Cc1ccc(C(=O)Nc2cncc(C(F)(F)F)c2)cc1-c1ccc2c(c1)[nH]c1ncncc12` [Example 66, 4-Methyl-3-(9H-pyrimido[4,5-b]indol-7-yl)-N-[5-(trifluoromethyl)pyridin-3-yl]-benzamide], the pIC50 was greater than 6.70 on ABL1 kinase (wild-type); greater than 6.72 on T315I ABL1; 6.00 to 6.30 in assay [1]; no less than 6.30 in assay [2]; no less than 6.30 in assay [3]; no less than 6.30 in assay [4]. The figures for the GI50 at TF1-BCRABL1 cells (setting [5]) and at TF1-BCRABL1 cells (setting [6]) were no more than 500 nM and less than 180 nM, respectively.

Regarding `Cc1ccc(NC(=O)c2cccc(C(F)(F)F)c2)cc1-c1ccc2[nH]c3ncncc3c2c1` [Example 40, N-[4-Methyl-3-(9H-pyrimido[4,5-b]indol-6-yl)phenyl]-3-(trifluoromethyl)benzamide], the negative-log IC50 (pIC50) at ABL1 kinase (wild-type) was greater than 6.70; at T315I ABL1, greater than 6.72; in assay [1] it was no less than 6.30; in assay [2], 6.00 to 6.30; in assay [3] it was no less than 6.30; in assay [4] it was no less than 6.30. For the same molecule, the figures for the GI50 on TF1-BCRABL1 cells (setting [5]) and at TF1-BCRABL1 cells (setting [6]) were no more than 500 nM and less than 180 nM, respectively.

For `Cc1ccc(C(=O)Nc2cccc(C(F)(F)F)c2)cc1-c1ccc2c(c1)[nH]c1ncncc12` [Example 52, 4-methyl-3-(9H-pyrimido-[4,5-b]indol-7-yl)-N-[3-(trifluoromethyl)phenyl]benzamide], the pIC50 on ABL1 kinase (wild-type) was greater than 6.70; on T315I ABL1, greater than 6.72; in assay [1] it was 6.00 to 6.30; in assay [2], no less than 6.30; in assay [3], no less than 6.30; in assay [4], no less than 6.30. The GI50 on TF1-BCRABL1 cells (setting [5]) is no more than 500 nM; on TF1-BCRABL1 cells (setting [6]), less than 180 nM.
